ChEMBL document CHEMBL1201862, “PubChem BioAssay data set” (2004)
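How tested: cells in 96-well plates exposed to compound for 48 hours at five concentrations. At the GI50, growth is halved.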 Calls of active or inactive are those of the source. Cut-off read from the data, not from the text of the source: active = GI50 up to about 1.1 µM and inactive = higher.

Legend:
Assay in all cases: DTP human tumour cell line panel, 48 h
MCF7 = system: MCF7
OVCAR-8 = system: OVCAR-8
HOP-62 = system: HOP-62
SF-539 = system: SF-539
OVCAR-5 = system: OVCAR-5
A549 = system: A549
SR = system: SR
T47D = system: T47D
MOLT-4 = system: MOLT-4
HT-29 = system: HT-29
SK-MEL-28 = system: SK-MEL-28
OVCAR-3 = system: OVCAR-3
RXF 393 = system: RXF 393
SK-MEL-5 = system: SK-MEL-5
SK-MEL-2 = system: SK-MEL-2
CAKI-1 = system: CAKI-1
786-0 = system: 786-0
HOP-92 = system: HOP-92
HCC 2998 = system: HCC 2998
SF-295 = system: SF-295
HCT-15 = system: HCT-15
EKVX = system: EKVX
MDA-N = system: MDA-N
HCT-116 = system: HCT-116
SK-OV-3 = system: SK-OV-3
OVCAR-4 = system: OVCAR-4
U-251 = system: U-251
SW-620 = system: SW-620
K562 = system: K562
BT-549 = system: BT-549
IGROV-1 = system: IGROV-1
MDA-MB-435 = system: MDA-MB-435
COLO 205 = system: COLO 205
UACC-257 = system: UACC-257
UO-31 = system: UO-31
NCI/ADR-RES = system: NCI/ADR-RES
PC-3 = system: PC-3
CCRF-CEM = system: CCRF-CEM
DU-145 = system: DU-145
M14 = system: M14
HL-60 = system: HL-60
SF-268 = system: SF-268
NCI-H460 = system: NCI-H460
SNB-75 = system: SNB-75
NCI-H23 = system: NCI-H23
NCI-H226 = system: NCI-H226
Malme-3M = system: Malme-3M
Hs-578T = system: Hs-578T
LOX IMVI = system: LOX IMVI
MDA-MB-231 = system: MDA-MB-231
ACHN = system: ACHN
UACC-62 = system: UACC-62
KM12 = system: KM12
RPMI-8226 = system: RPMI-8226
SNB-19 = system: SNB-19
TK-10 = system: TK-10
SN12C = system: SN12C
A498 = system: A498

## CC(C)NC(=O)OCCN=c1c2ccccc2ccc2ccccc12
MCF7
  GI50: 44.9 µM (inactive)
OVCAR-8
  GI50: 57.1 µM (inactive)
HOP-62
  GI50: 41.9 µM (inactive)
SF-539
  GI50: 53.2 µM (inactive)
OVCAR-5
  GI50: 88.9 µM (inactive)
A549
  GI50: 29.3 µM (inactive)
SR
  GI50: 24.8 µM (inactive)
T47D
  GI50: 15.6 µM (inactive)
MOLT-4
  GI50: 24.4 µM (inactive)
HT-29
  GI50: 39.2 µM (inactive)
SK-MEL-28
  GI50: 32.4 µM (inactive)
OVCAR-3
  GI50: 34.4 µM (inactive)
RXF 393
  GI50: 36.8 µM (inactive)
SK-MEL-5
  GI50: 17.6 µM (inactive)
SK-MEL-2
  GI50: 23.7 µM (inactive)
CAKI-1
  GI50: 35.9 µM (inactive)
786-0
  GI50: 59.4 µM (inactive)
HOP-92
  GI50: 27.2 µM (inactive)
HCC 2998
  GI50: 40 µM (inactive)
SF-295
  GI50: 38.2 µM (inactive)
HCT-15
  GI50: 38.7 µM
EKVX
  GI50: 35 µM (inactive)
MDA-N
  GI50: 40.6 µM (inactive)
HCT-116
  GI50: 34.7 µM (inactive)
SK-OV-3
  GI50: 47.6 µM (inactive)
OVCAR-4
  GI50: 33.9 µM (inactive)
U-251
  GI50: 38.3 µM (inactive)
SW-620
  GI50: 64.1 µM (inactive)
K562
  GI50: 25 µM (inactive)
BT-549
  GI50: 49.4 µM (inactive)
IGROV-1
  GI50: 47.5 µM (inactive)
MDA-MB-435
  GI50: 46.6 µM (inactive)
COLO 205
  GI50: 27.7 µM (inactive)
UACC-257
  GI50: 42.6 µM (inactive)
UO-31
  GI50: 23.5 µM (inactive)
NCI/ADR-RES
  GI50: 32.6 µM (inactive)
PC-3
  GI50: 23.8 µM (inactive)
CCRF-CEM
  GI50: 21 µM (inactive)
DU-145
  GI50: 56.2 µM (inactive)
M14
  GI50: 36 µM (inactive)
HL-60
  GI50: 15.8 µM (inactive)
SF-268
  GI50: 63.7 µM (inactive)
NCI-H460
  GI50: 45.6 µM (inactive)
SNB-75
  GI50: 62.5 µM (inactive)
NCI-H23
  GI50: > 100 µM (inactive)
NCI-H226
  GI50: 30.4 µM (inactive)
Malme-3M
  GI50: 46.1 µM (inactive)
Hs-578T
  GI50: 35.2 µM (inactive)
LOX IMVI
  GI50: 44.9 µM (inactive)
MDA-MB-231
  GI50: 32.1 µM (inactive)
ACHN
  GI50: 43.1 µM (inactive)
UACC-62
  GI50: 31.4 µM (inactive)
KM12
  GI50: 44.7 µM (inactive)
RPMI-8226
  GI50: > 10 µM (inactive)
SNB-19
  GI50: 24.4 µM (inactive)
TK-10
  GI50: 50.7 µM (inactive)
SN12C
  GI50: 34.8 µM (inactive)

## CCOC(=O)c1c2ccccc2n2c(=O)n(C)nnc12
MCF7
  GI50: > 100 µM (inactive)
OVCAR-8
  GI50: > 100 µM (inactive)
HOP-62
  GI50: 12.4 µM (inactive)
SF-539
  GI50: > 56.2 µM (inactive)
OVCAR-5
  GI50: > 100 µM (inactive)
A549
  GI50: > 100 µM (inactive)
T47D
  GI50: > 100 µM (inactive)
SK-MEL-28
  GI50: > 100 µM (inactive)
OVCAR-3
  GI50: > 27.9 µM (inactive)
RXF 393
  GI50: > 47.4 µM (inactive)
SK-MEL-5
  GI50: > 100 µM (inactive)
SK-MEL-2
  GI50: > 100 µM (inactive)
CAKI-1
  GI50: > 100 µM (inactive)
786-0
  GI50: 89.3 µM (inactive)
HOP-92
  GI50: > 100 µM (inactive)
HCC 2998
  GI50: > 100 µM (inactive)
SF-295
  GI50: 40.1 µM (inactive)
HCT-15
  GI50: > 100 µM
EKVX
  GI50: 99.8 µM (inactive)
MDA-N
  GI50: > 100 µM (inactive)
HCT-116
  GI50: > 100 µM (inactive)
SK-OV-3
  GI50: > 80.5 µM (inactive)
OVCAR-4
  GI50: > 100 µM (inactive)
U-251
  GI50: > 89.1 µM (inactive)
SW-620
  GI50: > 100 µM (inactive)
K562
  GI50: > 100 µM (inactive)
BT-549
  GI50: > 100 µM (inactive)
IGROV-1
  GI50: > 100 µM (inactive)
A498
  GI50: > 100 µM (inactive)
MDA-MB-435
  GI50: > 53.7 µM (inactive)
COLO 205
  GI50: > 100 µM (inactive)
UACC-257
  GI50: > 100 µM (inactive)
UO-31
  GI50: > 100 µM (inactive)
NCI/ADR-RES
  GI50: > 100 µM (inactive)
PC-3
  GI50: > 100 µM (inactive)
CCRF-CEM
  GI50: > 100 µM (inactive)
DU-145
  GI50: > 100 µM (inactive)
M14
  GI50: > 100 µM (inactive)
HL-60
  GI50: 1.53 µM (inactive)
SF-268
  GI50: 58.9 µM (inactive)
NCI-H460
  GI50: > 100 µM (inactive)
SNB-75
  GI50: 46.3 µM (inactive)
NCI-H23
  GI50: > 100 µM (inactive)
NCI-H226
  GI50: > 100 µM (inactive)
Malme-3M
  GI50: > 100 µM (inactive)
Hs-578T
  GI50: > 100 µM (inactive)
LOX IMVI
  GI50: > 100 µM (inactive)
MDA-MB-231
  GI50: > 100 µM (inactive)
ACHN
  GI50: > 84.1 µM (inactive)
UACC-62
  GI50: > 100 µM (inactive)
KM12
  GI50: > 100 µM (inactive)
RPMI-8226
  GI50: > 100 µM (inactive)
SNB-19
  GI50: > 100 µM (inactive)
TK-10
  GI50: > 75.5 µM (inactive)
SN12C
  GI50: > 100 µM (inactive)
